Values of other authors, collected in US6017399A, “Method for controlling and removing solid deposits from a surface of a component of a steam generating system” (priority 1998, dated 2000).
Where two headings read alike, the source gives them in different places.

Compound | pKa (25° C., Table 4) | pKa (25° C.) | pKa (about 250° C.)
NCCCCCN [1,5 Diaminopentane] | 10.915 |  | 
C1CCC2=NCCCN2CC1 [1,5-Diazabicyclo (5,4,0) Unde-5-ane] | 13.40 |  | 
NCCCCCCN [1,6 Diaminohexane] | 10.93 |  | 
NCCCCCCCCN [1,8 Diaminooctane] | 10.937 |  | 
CCCCNCCCC [Di-N-Butylamine] | 11.31 |  | 
CC(C)CNCC(C)C [Diisobutylamine] | 10.82 |  | 
CNC [Dimethylamine] | 10.61 | about 10.61 | about 6.50
CCCCN [Mono-N-Butylamine] | 10.61 |  | 
CN [Monomethylamine] | 10.62 |  | 
CCNC1CCCCC1 [N-Ethylcyclohexylamine] | 12.00 |  | 
CCCN(CCC)CCC [Tri-N-Propylamine] | 10.65 |  | 
CN(C)C [Trimethylamine] | 10.71 |  | 
Dimethylamino-propylamine | 11.70 |  | 
